According to article PMC12250302, “Synthesis, Antimicrobial Activities, and Model of Action of Novel Tetralone Derivatives Containing Aminoguanidinium Moiety” (International Journal of Molecular Sciences, 2025):
Values after ≈ are worked out from the molar mass of the structure shown. “Also recorded” adds a separate entry of the source.

Tests used:
[1] = system: lung cancer cell line (A549); assay: Cytotoxicity, CCK-8 method; format: cell-based
Experimental: (§1) The CCK-8 method was used to evaluate the toxicity of 2D to four cell lines (lung cancer cell line (A549), human liver cell line (HepG2), human embryonic kidney 293T cells (HEK 293-T), and human colon adenocarcinoma cell line (Caco-2)). Cells with a density of 1 × 10^5 cells/well were added to 96-well plates and then incubated for 24 h at 5% CO2 and 37 °C. Subsequently, after treatment with different concentrations of 2D for 24 h, the CCK-8 kit was added according to the prescribed procedure. Following an incubation at 37 °C for 0.5 h, the absorbances at 450 nm were detected. The […] was calculated according to the following formula:Cytotoxic (%) = (Atest/Acontrol) × 100%(2)

[2] = system: human colon adenocarcinoma cell line (Caco-2); assay: Cytotoxicity, CCK-8 method; format: cell-based
Experimental: as §1

[3] = system: human liver cell line (HepG2); assay: Cytotoxicity, CCK-8 method; format: cell-based
Experimental: as §1

[4] = system: human embryonic kidney 293T cells (HEK 293-T); assay: Cytotoxicity, CCK-8 method; format: cell-based
Experimental: as §1

MRSA-2 [5] = assay: Fluorescence microscopy assay (DAPI/PI); format: cell-based, Staphylococcus aureus; conditions: vancomycin 4 µg/mL; 2D 4 and 8 μg/mL; 2 h
Experimental: MRSA-2 was cultivated to the logarithmic growth phase, then washed with PBS and resuspended in PBS until the concentration of bacterial suspension reached 1 × 10^8 CFU/mL. […] Thereafter, the samples were incubated with DAPI (10 μM) and PI (10 μM) in the dark for 15 min. The bacterial cells were then subjected to observation under a fluorescence microscope. DMSO served as the negative controls.

MRSA-2 biofilm = assay: Biofilm formation inhibition assay (crystal violet); format: cell-based, Staphylococcus aureus; conditions: MRSA-2
Experimental: The effect of 2D on the biofilm formation of MRSA was evaluated. MRSA-2 was cultured in MH broth for a period of 3–5 h, after which it was diluted to a density of 1 × 10^6 CFU/mL with MH broth. […] After the removal of the suspended bacteria, the well plates were washed thrice with PBS. Then, 150 μL of methanol was added and fixed for 30 min. Subsequent to air-drying, 150 μL of a 0.1% crystal violet aqueous solution was added. Following a 15 min staining period, the excess crystal violet was removed by rinsing with flowing water. Finally, 150 μL of anhydrous ethanol was added and the mixture was incubated for 20 min. The optical density at 575 nm was detected.

MRSA-2 [6] = assay: MRSA-induced mouse skin abscess model; format: in vivo
Source text: The MRSA-induced mouse skin abscess model was used to assess the in vivo antibacterial effects of 2D. Female KM mice, aged 4–6 weeks and weighing 20 ± 2 g, were purchased from the Laboratory Animal Center, Lanzhou Institute of Veterinary Medicine, Chinese Academy of Agricultural Sciences. The animal experiments were approved by the Ethics Committee of Research Involving Animals of the Lanzhou Institute of Husbandry and Pharmaceutical Science of CAAS (Approval number: 2025-03) and performed in accordance with the guidelines of the Ethics Committee for Animal Experiments. Prior to the formal experiment, all mice were acclimated for 5 days. The mice were kept in a pathogen-free environment with a 12 h light/12 h dark cycle, 50% ± 10% humidity, and a temperature of 24 °C ± 2 °C. […] The depilation method employed was as follows: depilatory paste was applied to the designated area for 10 min, after which it was thoroughly washed with 0.9% saline. The mice were semi-anesthetized by intraperitoneal injection with sodium Ulatan (TCI, 20%, 100 μL). […] After a 24 h interval, the administration was repeated, and 24 h after the last administration, the volume of abscess was measured and calculated. Then, the skin of the infected site and main organs were collected for tissue bacterial load and pathological detection.

sheep red blood cells = assay: Hemolytic activity; format: cell-based
Experimental: The hemolysis of compound 2D was determined by its ability to lyse sheep red blood cells. The results were expressed as the HC50 value (the concentration at which 50% of red blood cells were lysed).
The sterile defibrillated sheep blood cells were centrifuged (5000 rpm, 5 min) and then washed three times with 0.9% saline. Subsequently, 1 μL of different concentrations of 2D (0.5–128 μg/mL) was mixed with 999 μL of red blood cell suspension. After incubation at 37 °C for 1 h, the mixed solution was centrifuged. The absorbance of the supernatant at 570 nm was measured. Triton X-100 (0.1%) was used as a positive control, and DMSO was used as a negative control. The hemolysis rate was calculated according to the following formula:Hemolysis rate (%) = (ODTreatment − ODNegative)/(ODPositive − ODNegative) × 100%(1)

MRSA-2 [7] = assay: Bacterial DNA and protein leakage experiment; format: cell-based, Staphylococcus aureus; conditions: compared with the control group; 4 h
Experimental: MRSA-2 was cultured to logarithmic growth phase. The bacterial precipitate was collected, washed twice with PBS (pH = 7.2–7.4), and resuspended in PBS to 1 × 10^7 CFU/mL. […] After centrifugation of 1 mL of the suspension, the supernatant was collected. The protein level was measured by BCA protein concentration kits (Servicebio, Hubei, China), and the DNA level was detected by microspectrophotometer.

Structure (SMILES): [H]/N=C(\N)NN=C1CCCc2cc(OCCCCCCC)ccc21 [Compound 2D, (E)-2-(6-(heptyloxy)-3,4-dihydronaphthalen-1(2H)-ylidene)hydrazine-1-carboximidamide]
- IC50 ([1]; Homo sapiens, A549, 24 h, CCK-8): 3.57 mg/L (≈ 11.3 µM)
- Selectivity index (SI) ([1]; SI = IC50 (A549)/MIC ATCC 29213): 7.14
- IC50 ([2]; Homo sapiens, CaCo-2, 24 h, CCK-8): 9.86 mg/L (≈ 31.2 µM)
- Selectivity index (SI) ([2]; SI = IC50 (CaCo-2)/MIC ATCC 29213): 19.72
- IC50 ([3]; Homo sapiens, HepG2, 24 h, CCK-8): 6 mg/L (≈ 19 µM)
- Selectivity index (SI) ([3]; SI = IC50 (HepG2)/MIC ATCC 29213): 12.00
- IC50 ([4]; Homo sapiens, HEK 293-T, 24 h, CCK-8): 13.1 mg/L (≈ 41.4 µM)
- Selectivity index (SI) ([4]; SI = IC50 (HEK 293-T)/MIC ATCC 29213): 26.18
- PI red fluorescence (damaged membranes) (MRSA-2 [5]): a marked tendency to emit red fluorescence
- reduction of biofilm formation (MRSA-2 biofilm; 1 μg/mL (1MIC), 24 h): more than 92%
- inhibition of biofilm formation (MRSA-2 biofilm; 2–32 μg/mL (2-32MIC)): almost completely inhibited the formation of biofilm
- inhibition at 0.25 µg/mL (MRSA-2 biofilm; Staphylococcus aureus, 0.25 μg/mL (1/4MIC), 24 h, read-out: inhibition rate of biofilm formation): ~18.5%
- inhibition at 0.5 µg/mL (MRSA-2 biofilm; Staphylococcus aureus, 0.5 μg/mL (1/2MIC), 24 h, read-out: inhibition rate of biofilm formation): ~37.8%
- purulent lesions at the infection site (skin histopathology) (MRSA-2 [6]; 5 mg/kg): significantly smaller
- volume of skin abscess (MRSA-2 [6]; 5 mg/kg, injected 2 h and 24 h postinfection, compared to model and solvent group): reduced volume
- purulent foci (skin histopathology) (MRSA-2 [6]; 10 mg/kg): almost no purulent foci
- skin abscess appearance (MRSA-2 [6]; 10 mg/kg, injected 2 h and 24 h postinfection): devoid of any discernible abscesses
- bacterial load of the skin at the infected site (MRSA-2 [6]; 2D 5 and 10 mg/kg, vancomycin 5 mg/kg, compared with model and solvent group): decreased bacterial load; also recorded: significantly reduced
- histopathology of the major organs (MRSA-2 [6]; infected mice after treatment, H&E): no discernible lesions
- Selectivity index (SI) (sheep red blood cells; SI = HC50/MIC ATCC 29213): 101.30
- HC50 (sheep red blood cells; sheep red blood cells, 37 °C, 1 h): 50.65 µg/mL
- content of extracellular DNA (MRSA-2 [7]): significantly increased
- content of extracellular protein (MRSA-2 [7]): significantly increased
